Series [1] deals with ZIKV. Put plainly: ZIKV binding assay on hCMEC/D3 cells. Format: cell-based, Zika virus.
Series [2] has as its system ZIKV (Brazil/2016/INMI1 strain). Put plainly: Dose-dependent effect on ZIKV infection of Vero E6 cells. It counts as cell-based, Zika virus. The conditions noted are these: MOI of 1, Brazil/2016/INMI1 strain, fitted dose-response model. As for the experimental part:
FIG 4 Amphipathicity was involved in the differences in potency between claudin-derived peptides. […] Three amino acids of interest at positions 11, 15, and 18 are indicated. (B) Sequences of the parental and modified peptides. The swapped amino acids are highlighted. (C) ZIKV (MOI of 1) was treated with 50 μM of the modified peptides described in (B) for 1 h. […] Left or right orientations of the helixes are indicated with an arrow and the hydrophobic faces of each peptide are shown with a black line. […] The dark line represents the fitted dose-response model for each peptide and the light area represents the 95% confidence interval of the model. The calculated IC50 is indicated.
A D-enantiomer of an alpha helix forms a mirrored left-handed helix (Fig. 4D) but retains the same physicochemical properties ([28]).

For series [3], the system named is ZIKV. In words: ZIKV internalization assay in hCMEC/D3 cells. Format: cell-based, Zika virus. The conditions noted are these: 2 h at 37°C.
Series [4] deals with ZIKV. Put plainly: ZIKV viral production, supernatants of infected hCMEC/D3 cells titrated on Vero E6 cells. Format: cell-based, Zika virus. The conditions noted are these: 50 μM peptide, MOI of 1, titrated on Vero E6.
Series [5] concerns ZIKV. In words: ZIKV replication and production in TrHBMEC, HUVEC, A549 and HEK 293T cells. Format: cell-based, Zika virus. The conditions noted are these: 50 μM peptide, MOI of 1, HUVEC, RT-qPCR and titration. (In general: Quantitative PCR measures a nucleic acid by following its amplification.)
For the next series, the system named is ZIKV E-mediated fusion. It counts as cell-based, Zika virus. The conditions noted are these: C6/36 infected with ZIKV MOI of 2 for 48 h, acidification 2 h, fusion index.
Series [6] deals with ZIKV. The conditions noted are these: for IC50: read-out: IC50, ZIKV infection in hCMEC/D3, ZIKV MOI of 1, hCMEC/D3, fitted dose-response model, R^2 0.9 (CL1.1) and 0.7 (CL7.1).
Another series deals with SARS-CoV-2. Format: cell-based. The conditions noted are these: 50 μM, Vero E6 cells, MOI of 1, 72 h, flow cytometry. A general note: In flow cytometry, cells or beads pass a laser one at a time.
The test system of another series is Caco-2 epithelial cells. The conditions noted are these: 50 μM, differentiated Caco-2 monolayers on Transwell, over 24 h, n = 3.
The subject of a further series is HIV-1. The conditions noted are these: 50 μM, human primary CD4+ T cells, 72 h, flow cytometry.
Another series deals with HCV. Also noted: method as in PMID 22378192. The conditions noted are these: Huh7.5.1 cells; cited from earlier work.
Series [7] deals with ZIKV. Put plainly: Pretreatment of hCMEC/D3 cells with peptide before ZIKV infection. The conditions noted are these: 10 μM for 1 h, cells washed, then ZIKV MOI of 1 for 48 h, hCMEC/D3, RT-qPCR.
The subject of series [8] is ZIKV. Put plainly: Treatment of concentrated ZIKV stock followed by 30-fold dilution and infection of hCMEC/D3. The conditions noted are these: ZIKV stock 1.5 × 10^7 PFU/mL treated with 10 μM for 1 h, diluted by a factor of 30, hCMEC/D3, 48 h.

Where a SMILES comes first, the peptide text is derived from it. Where no end group is shown, it is not given here. [ ]: non-standard residue; d: D form.

As to Heparin [reference compound], the “reduction of viral binding” value with ZIKV [1] (200 μg/mL, positive control, 1 h at 4°C, MOI of 10, hCMEC/D3) is recorded as 80%.
For `CC[C@@H](C)[C@@H](NC(=O)[C@@H](Cc1ccccc1)NC(=O)CNC(=O)[C@@H](CC(C)C)NC(=O)[C@@H](CC(C)C)NC(=O)[C@@H](CCC(N)=O)NC(=O)[C@@H](CC(C)C)NC(=O)CNC(=O)[C@@H](C)NC(=O)[C@@H](CC(N)=O)NC(=O)[C@@H](C)NC(=O)[C@H](N)CCSC)C(=O)N[C@H](CC(C)C)C(=O)N[C@H](C)C(=O)N[C@H](Cc1ccccc1)C(=O)N[C@H](CC(C)C)C(=O)NCC(=O)N[C@H](Cc1c[nH]c2ccccc12)C(=O)O` [D-CL1.1] (H-[dM][dA][dN][dA]G[dL][dQ][dL][dL]G[dF][dI][dL][dA][dF][dL]G[dW]-OH; N-terminus and C-terminus assumed), the IC50 in series [2] amounted to 670 ± 40 nM. Also, the “antiviral properties against JEV compared with CL1.1” value in the series on JEV is “comparable to that of CL1.1”. Moreover, the “antiviral properties against YFV compared with CL1.1” value in the series on YFV (Vero E6, MOI of 1, increasing concentrations (Fig. S6)) is “comparable to that of CL1.1”.
For `O=C(N/N=C/c1ccc(O)c(O)c1)c1cc2ccccc2cc1O` [Dynasore, reference compound], the “reduction of viral internalization” value with ZIKV [3] (100 μM, positive control, hCMEC/D3) was found to be 95%.
Take MANSGLQLLGFSMALLGW [CL7.1]: the “viral production (infectious particles in supernatants)” value in the series on ZIKV [4] is “significantly reduced”. Further, the “ZIKV replication and production” value in the series on ZIKV [5] is on record as “significantly reduced”. For the same compound, the “reduction of syncytium formation / fusion” value in the series on ZIKV E-mediated fusion (50 μM) was 40%. In the series on ZIKV [6] (50 μM peptide, inoculum treated 1 h, adsorption 2 h, MOI of 1, peptide kept 48 h, hCMEC/D3, RT-qPCR), the “reduction of viral RNA levels compared to untreated cells” value amounted to 2 fold. The “antiviral activity in the absence of pretreatment” value in the series on ZIKV [6] (50 μM, virus and peptide added simultaneously to the cell culture, hCMEC/D3) is given as “also detected”. For the same compound, the IC50 in the series with ZIKV [6] is 53000 ± 13000 nM.
As for MANAGLQLLGFILAFLGW [CL1.1], in the series with ZIKV [4], the “viral production (infectious particles in supernatants)” value is “below the detection limit of the assay”. In addition, the “ZIKV replication and production” value with ZIKV [5] is given as “undetectable”. For the same compound, the “binding of ZIKV to hCMEC/D3 cells” value with ZIKV [1] (10 μM, inoculum treated 1 h, adsorption 1 h at 4°C, MOI of 10, RT-qPCR) is reported as “did not alter”. Further, the “ZIKV internalization in hCMEC/D3 cells” value in the series with ZIKV [3] (10 μM, trypsin removal of surface virus, RT-qPCR) was “did not alter”. Also, in the series on ZIKV E-mediated fusion (10 μM), the “reduction of syncytium formation” value turned out to be 80%. Further, the IC50 was 710 ± 50 nM in [2]; around 870 nM in the series with ZIKV [6]; 560 ± 50 nM with YFV (read-out: IC50, YFV, Vero E6, MOI of 1, YFV/17D strain, titration of supernatants). In the series on SARS-CoV-2, the “antiviral activity against SARS-CoV-2 infection” value is “No antiviral activity”. Besides, the “intracellular viral RNA levels / impact on ZIKV infection” value with ZIKV [6] (50 μM peptide, hCMEC/D3, MOI of 1, 48 h, RT-qPCR) is given as “below the threshold of detection”. Further, in the series on Caco-2 epithelial cells, the electric transepithelial resistance result was “did not alter”. The “antiviral activity against HIV-1 infection” value with HIV-1 is listed as “No antiviral activity”. Moreover, the “antiviral activity against HCV infection” value with HCV was “exhibited antiviral activity”. Moreover, in the series on ZIKV [7], the “cell susceptibility to ZIKV after pretreatment of cells” value was “did not affect cell susceptibility to ZIKV”. Further, the “reduction of intracellular viral RNA levels” value in the series on ZIKV [8] was determined as 80%.
